In patent US20240140991A1, “ANTIBIOTIC NATURAL PRODUCT ANALOGUES” (THE QUEEN'S UNIVERSITY OF BELFAST, priority 2021, published 2024):
In brackets after ≈: the same amount, converted by molar mass. Read-outs that look alike come from different tables or passages of the source. Positions of bridges follow the written chain, without caps; N, C: chain ends. Non-standard residues stand in square brackets, D forms with d. Residues, ends and D or L forms follow the SMILES beside them. ξ: configuration not given here. *: point of attachment. Octanoyl(7-Me) = CC(C)CCCCCC(=O)*; Hexanoyl(4ξ-Me) = CCC(C)CCC(=O)*; dOrn = NCCC[C@@H](N)C(=O)O; Orn = NCCC[C@H](N)C(=O)O; Dap = NC[C@H](N)C(=O)O

Legend:
[1] = test system: A. baumannii 2018-006; format: cell-based, Acinetobacter baumannii
Experimental: (§1) Minimum inhibitory concentration (MIC) was determined by broth microdilution according to CLSI guidelines. Blood agar plates were inoculated with glycerol stocks of Escherichia coli ATCC 25922, E. coli ATCC 25922 MCR-1, E. coli MCR-1 (clinical isolate from Utrecht Medical Center, NL), E. coli EQAS MCR-2 (clinical isolate from Wageningen University and Research, NL), Kiebsielia pneumoniae ATCC 11228, K. pneumoniae ATCC 13883, K. pneumonia 2048 (clinical isolate from Vrije Universiteit Amsterdam Medical Center, NL), K. pneumonia JS-123 (clinical isolate from Utrecht Medical Center, NL), Acinetobacter baumannii ATCC 17961, A. baumannil ATCC 17978, A. baumannii 2018-006 (clinical isolate from Rijksinstituut voor Volksgezondheid en Milieu, NL), A. baumannii MDR (clinical isolate from Vrije Universiteit Amsterdam Medical Center, NL), Pseudomonas aeruginosa ATCC 27853, P. aeruginosa PAO1, P. aeruginosa NRZ-03961 (Reference strain from Das Nationale Referenzzentrum für gramnegative Krankenhauserreger, DE), P. aeruginosa M-120 (clinical isolate from Leiden University Medical Center, NL) and Staphylococcus aureus USA300 (clinical isolate from Texas Children's Hospitalm, USA). E. coli 25922 MCR1 was grown on LB agar supplemented with kanamycin. The inoculated agar plates were then incubated for 16 hours at 37° C. Individually grown colonies were subsequently used to inoculate 3 mL aliquots of TSB that were then incubated at 37° C. with shaking at 220 rpm. In parallel, the compounds to be assessed were serially diluted with Mueller-Hinton broth (MHB) in polypropylene 96-well plates (50 μL in each well). Once the OD600 of the bacterial suspensions reached 0.5, the bacteria were diluted with MHB (final concentration 2×10^5 CFU mL^−1) and added to the microplates containing the test compounds (50 μL to each well, final volume: 100 μL). The well-plates were sealed with an adhesive membrane and after 16 hours of incubation at 37° C. with shaking at 220 rpm the wells were visually inspected for bacterial growth. MIC values were defined as the lowest concentration of the compound that prevented visible growth of bacteria.

[2] = test system: A. baumannii ATCC 17978; format: cell-based, Acinetobacter baumannii
Experimental: as §1

[3] = test system: P. aeruginosa PAO1; format: cell-based, Pseudomonas aeruginosa
Experimental: as §1

[4] = test system: P. aeruginosa M-120; format: cell-based, Pseudomonas aeruginosa
Experimental: as §1

[5] = test system: P. aeruginosa NRZ-03961; format: cell-based, Pseudomonas aeruginosa
Experimental: as §1

[6] = test system: Staphylococcus aureus USA300; format: cell-based
In short: (§2)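 Broth microdilution in MHB per CLSI; inoculum 2×10^5 CFU mL^−1 from log-phase TSB cultures at OD600 0.5. Plates incubated 16 hours at 37° C with shaking at 220 rpm. MIC is the lowest concentration preventing visible growth.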

[7] = test system: Pseudomonas aeruginosa ATCC 27853; format: cell-based
In short: as §2

[8] = test system: Escherichia coli ATCC 25922; format: cell-based
In short: as §2

[9] = test system: Acinetobacter baumannii ATCC 17961; format: cell-based
In short: as §2

[10] = test system: K. pneumoniae ATCC 11228; format: cell-based, Klebsiella pneumoniae
Experimental: as §1

[11] = test system: K. pneumoniae 2048; format: cell-based, Klebsiella pneumoniae
Experimental: as §1

[12] = test system: K. pneumoniae ATCC 13883; format: cell-based, Klebsiella pneumoniae
Experimental: as §1

[13] = test system: K. pneumoniae JS-123; format: cell-based, Klebsiella pneumoniae
Experimental: as §1

[14] = test system: A. baumannii MDR; format: cell-based, Acinetobacter baumannii; conditions: A. baumannii MDR clinical isolate
Experimental: as §1

[15] = test system: E. coli MCR-1; format: cell-based, Escherichia coli; conditions: E. coli MCR-1 clinical isolate (colistin resistant)
Experimental: as §1
(§3) In the table above, “MCR” denotes that one of the MCR family of genes, which confers colistin resistance, is present in the bacterial strain. Thus, E. coli ATCC 25922 MCR-1, E. coli MCR-1 and E. coli EQAS MCR-2 are each colistin resistant. […] Therefore, laterocidamide may overcome some of the challenges faced due to antibiotic resistance.

[16] = test system: E. coli ATCC 25922 MCR-1; format: cell-based, Escherichia coli; conditions: E. coli ATCC 25922 MCR-1 (colistin resistant)
Experimental: as §1, §3

[17] = test system: E. coli EQAS MCR-2; format: cell-based, Escherichia coli; conditions: E. coli EQAS MCR-2 clinical isolate (colistin resistant)
Experimental: as §1, §3

CCC(C)CCC(=O)N[C@H](CO)C(=O)N[C@H](Cc1ccc(O)cc1)C(=O)N[C@H](Cc1c[nH]c2ccccc12)C(=O)N[C@H](CCCN)C(=O)N[C@@H](CCCN)C(=O)NCC(=O)N[C@H](CCCN)C(=O)N[C@@H](Cc1c[nH]c2ccccc12)C(=O)N[C@H]1CNC(=O)CNC(=O)[C@H](CO)NC(=O)CNC(=O)[C@H]([C@@H](C)CC)NC1=O (stereo partly drawn) [Dap9-Relacidamide A] ({Hexanoyl(4ξ-Me)}-[dS][dY][dW][dOrn][Orn]G[dOrn]W[Dap]IGSG; lactam 9-C)
Minimum inhibitory concentration (MIC) ([1]; 2018-006): 2 to 4 µg/mL
Minimum inhibitory concentration (MIC) ([2]; ATCC 17978): 4 µg/mL (≈ 2.61 µM)
Minimum inhibitory concentration (MIC) ([3]; PAO1): 1 to 2 µg/mL
Minimum inhibitory concentration (MIC) ([4]; M-120): 1 to 2 µg/mL
Minimum inhibitory concentration (MIC) ([5]; NRZ-03961): 2 to 4 µg/mL
Minimum inhibitory concentration (MIC) ([6]; USA300): >64 µg/mL
Minimum inhibitory concentration (MIC) ([7]; ATCC 27853): 0.5 to 1 µg/mL
Minimum inhibitory concentration (MIC) ([8]; ATCC 25922): 2 µg/mL (≈ 1.3 µM)
Minimum inhibitory concentration (MIC) ([9]; ATCC 17961): 1 to 2 µg/mL
Minimum inhibitory concentration (MIC) ([10]; ATCC 11228): 2 µg/mL (≈ 1.3 µM)
Minimum inhibitory concentration (MIC) [11]; 2048: 2 µg/mL (≈ 1.3 µM)
Minimum inhibitory concentration (MIC) ([12]; ATCC 13883): 2 µg/mL (≈ 1.3 µM)
Minimum inhibitory concentration (MIC) ([13]; JS-123): 1 µg/mL (≈ 0.652 µM)

CC[C@H](C)[C@@H]1NC(=O)[C@@H](NC(=O)[C@H](Cc2c[nH]c3ccccc23)NC(=O)[C@@H](CCCN)NC(=O)CNC(=O)[C@H](CCCN)NC(=O)[C@@H](CCCN)NC(=O)[C@@H](Cc2c[nH]c3ccccc23)NC(=O)[C@@H](Cc2ccc(O)cc2)NC(=O)[C@@H](CO)NC(=O)CCCCCC(C)C)COC(=O)CNC(=O)CNC(=O)[C@H](CC(N)=O)NC1=O [Ser9-Laterocidine] ({Octanoyl(7-Me)}-[dS][dY][dW][dOrn][Orn]G[dOrn]WSINGG; ester 9-C)
Minimum inhibitory concentration (MIC) [14]: 2 µg/mL (≈ 1.26 µM)
Minimum inhibitory concentration (MIC) [15]: 0.5 µg/mL (≈ 0.314 µM)
Minimum inhibitory concentration (MIC) [16]: 0.5 µg/mL (≈ 0.314 µM)

colistin [reference compound]
Minimum inhibitory concentration (MIC) ([1]; A. baumannii 2018-006 clinical isolate): ≤0.5 µg/mL
Minimum inhibitory concentration (MIC) [14]: ≤0.5 µg/mL
Minimum inhibitory concentration (MIC) ([2]; A. baumannii ATCC 17978): ≤0.5 µg/mL
Minimum inhibitory concentration (MIC) ([3]; P. aeruginosa PAO1): ≤0.5 µg/mL
Minimum inhibitory concentration (MIC) ([4]; P. aeruginosa M-120 clinical isolate): 1 µg/mL
Minimum inhibitory concentration (MIC) ([5]; P. aeruginosa NRZ-03961): <0.5 µg/mL
Minimum inhibitory concentration (MIC) [15]: 2 to 4 µg/mL
Minimum inhibitory concentration (MIC) [17]: 2 to 4 µg/mL
Minimum inhibitory concentration (MIC) [16]: 2 to 4 µg/mL
Minimum inhibitory concentration (MIC) ([6]; S. aureus USA300 (Gram-positive)): >64 µg/mL
Minimum inhibitory concentration (MIC) ([7]; P. aeruginosa ATCC 27853): 1 µg/mL
Minimum inhibitory concentration (MIC) ([8]; E. coli ATCC 25922): 0.25 to 0.5 µg/mL
Minimum inhibitory concentration (MIC) ([9]; A. baumannii ATCC 17961): ≤0.5 µg/mL
Minimum inhibitory concentration (MIC) ([10]; K. pneumoniae ATCC 11228): ≤0.5 µg/mL
Minimum inhibitory concentration (MIC) ([11]; K. pneumoniae 2048 clinical isolate): 2 µg/mL
Minimum inhibitory concentration (MIC) ([12]; K. pneumoniae ATCC 13883): 1 µg/mL
Minimum inhibitory concentration (MIC) ([13]; K. pneumoniae JS-123 clinical isolate): ≤0.5 µg/mL
